Experimental data taken from patent EP0837071A1, “Tripeptide antithrombotic agents” (ELI LILLY AND COMPANY, priority 1990, dated 1992).
“And” between values parts separate entries of the source, which are not always exact repeats. Equal entries are not always repeated. Structures can show the parent of a compound that is named as a salt. Where two headings read alike, the source gives them in different places. Square brackets hold non-standard residues; d marks the D form. Peptide text beside a SMILES is read from it. * marks the point of attachment. dNMePhg = CN[C@@H](C(=O)O)c1ccccc1; dHpg = N[C@@H](C(=O)O)c1ccc(O)cc1; dChg = N[C@@H](C(=O)O)C1CCCCC1; dPhg = N[C@@H](C(=O)O)c1ccccc1; Boc = CC(C)(C)OC(=O)*

Legend:
thrombin = biological target: T1, thrombin (Bos taurus, UniProt P00735); test: Inhibition of thrombin amidase activity (chromogenic substrate N-benzoyl-D-phenylalanyl-L-valyl-L-arginyl-p-nitroanilide); assay type: biochemical
T1 construct: purchased
Procedure: The data in the table were obtained in an assay in which thrombin hydrolyzes the chromogenic substrate, N-benzoyl-D-phenylalanyl-L-valyl-L-arginyl-p-nitroanilide.
The assay was carried out in 50 µl buffer (0.03M Tris, 0.15M NaCl, pH 7.4) with 25 µl of thrombin solution (0.21 mg/ml of thrombostat powder in 0.06 M Tris, 0.3M NaCl, pH 7.4) and 150 µl of an aqueous solution of the chromogenic substrate at a concentration of 0.25 mg/ml. Solutions of test compound (25 µl) at various concentrations were added. […] Standard curves were constructed by plotting free thrombin concentration against hydrolysis rate. […] The amount of free inhibitor in each assay was calculated by subtracting the number of moles of bound thrombin from the number of moles of added inhibitor (test compound).
The Kass value is the hypothetical equilibrium constant for the reaction between thrombin and the test compouhnd (I). Thrombin + I ⇄ Thrombin - I [formula] Kass =([Thrombin I])/([ (Thrombin) x (I) ]) [formula]
Kass was calculated for a range of concentrations of test compounds and the mean value is reported in units of liter per mole.

plasma [1] = test: Plasma coagulation assay: activated partial thromboplastin time (APTT); assay type: biochemical; conditions: Actin (Dade), CaCl2
Procedure: (§1) The numerical values in the table are the concentrations of the test compounds (ng/ml) required to prolong coagulation by 2-fold in the three tests. The thrombin time evaluation was carried out in plasma and separately determined in a buffer system at […].
(§2) The data presented in Table 2 were obtained using a CoaScreener instrument from Tecan, Inc. in the assay protocols listed below. Prothrombin Time: 50 µl plasma 50 µl saline 7 µl test solution 50 µl thromboplastin (Dade) Thrombin Time: 50 µl plasma 50 µl saline 7 µl test compound 50 µl bovine thrombin (2 NIH unit/ml) In the Thrombin Time determined in pH 7.4 buffer fibrinogen was used instead of plasma. APTT: 50 µl plasma 50 µl Actin (Dade) 7 µl test solution 50 µl CaCl2 (0.01M).

bovine thrombin [2] = biological target: T2, bovine thrombin (Bos taurus, UniProt P00735); test: Plasma coagulation assay: thrombin time; assay type: biochemical; conditions: for EC (2-fold clotting time): read-out: Thrombin Time: concentration of test compounds required to prolong coagulation by 2-fold
T2 construct: 50 µl bovine thrombin (2 NIH unit/ml)
Procedure: as §1, §2

plasma [3] = test: Plasma coagulation assay: prothrombin time; assay type: biochemical; conditions: thromboplastin (Dade)
Procedure: as §1, §2

bovine thrombin [4] = biological target: T2, bovine thrombin; test: Thrombin time in buffer (fibrinogen instead of plasma); assay type: biochemical
Procedure: as §1, §2

[5] = system: Arterial Thrombosis in the Rat; test: FeCl3-induced arterial thrombosis in the carotid artery of the rat; assay type: in vivo; conditions: infusion from 15 min before to 60 min after FeCl3 application, NA = Not active at 4 mg/kg/h or at 7 mg/kg/h, the highest doses tested
Procedure: The antithrombotic activity of representative compounds of the invention was determined in in vivo tests carried out in the rat. The test employed induced arterial thrombosis in the carotid artery of the rat and measured the infusion dose of test compound required to maintain blood flow for fifty minutes past the time of occlusion. The test was performed as follows.
Arterial thrombosis was induced in the rat by injury of the carotid artery. Topical application of a ferric chloride solution was used to injure the vessel. […] Animals were laid on a water blanket in which the circulated water was maintained at 37° C. The carotid artery was approached through a midline cervical incision. Careful blunt dissection was used to expose and isolate the vessel from the carotid sheath. A silk suture was pulled underneath the artery to lift the vessel to provide clearance to insert a thermocouple underneath it. […] The discs were cut to equal size using sharpened stainless steel tubing (3 mm i.d.) chucked in a drill press. A saturated disc was placed on each carotid artery above the thermocouple. The time between FeCl3 application and the time at which temperature decreased abruptly was recorded as time to occlusion (TTO) of the vessel. The average time required for both vessels to occlude was used to represent TTO for each animal.
Test compounds were dissolved in isotonic saline. A syringe pump was used to infuse drug solutions starting 15 min before FeCl3 application and continuing for 60 min after FeCl3 application. Dose-response curves were plotted to determine the relationship between the log10 of the infused doses and the TTO of the injured arteries.
The association between vessel occlusion and the abrupt temperature decrease was established by simultaneously recording the temperature and blood flow on the same recorder. A pulsed Doppler flow probe was placed around the carotid artery proximal to the thermocouple. […] Results were reported as percent change from initial baseline values (6 min before occlusion). The time at which vessel temperature decreased rapidly was arbitrarily established as zero and pre- and post-occlusion temperature and flow values were referenced from that point.

[6] = Thrombin Amidase Kass, apparent equilibrium (association) constant, mean over a range of concentrations, pH 7.4, acetate salts unless indicated otherwise
[7] = plasma, bovine thrombin (2 NIH unit/ml)
[8] = buffer pH 7.5, fibrinogen instead of plasma, read-out: Buffer (pH 7.5) Thrombin Time: concentration of test compounds required to prolong coagulation by 2-fold
[9] = apparent equilibrium (association) constant, mean over a range of concentrations, pH 7.4, acetate salts unless indicated otherwise, read-out: Thrombin Amidase Kass (converted)

| Structure (SMILES) | Kd (thrombin; [6]) | APTT: concentration of test compounds required to prolong coagulation by 2-fold (plasma [1]) [ng/mL] | EC (2-fold clotting time) (bovine thrombin [2]; [7]) [µg/mL] | Prothrombin Time: concentration of test compounds required to prolong coagulation by 2-fold (plasma [3]) [ng/mL] | also measured |
| --- | --- | --- | --- | --- | --- |
| N=C(N)NCCC[C@@H](C=O)NC(=O)[C@@H]1CCCN1C(=O)C1NCCc2ccccc21 (mixture of isomers) | 11.4 nM |  |  |  |  |
| CC(C)(C)OC(=O)N[C@@H](C(=O)N1CCC[C@H]1C(=O)N[C@H](C=O)CCCNC(=N)N)c1cccs1 [N-Boc-D-2-thienyiglycyl] | 71.4 nM |  |  |  |  |
| COc1ccc([C@@H](NC(=O)OC(C)(C)C)C(=O)N2CCC[C@H]2C(=O)N[C@H](C=O)CCCNC(=N)N)cc1 [N-Boc-D-(4-methoxy)phenylglycyl] | 13.3 nM | 640 | 0.08 |  |  |
| CC(C)(C)OC(=O)N[C@@H](C(=O)N1CCC[C@H]1C(=O)N[C@H](C=O)CCCN=C(N)N)c1ccc(O)cc1 [N-Boc-D-(4-hydroxy)phenylglycyl, N-Boc-D-(4-hydroxyphenylglycyl)-Pro-Arg-H diacetate] (Boc-[dHpg]-Pro-Arg-aldehyde) | 8.7 nM |  |  |  |  |
| CC(C)(C)OC(=O)N[C@@H](C(=O)N1CCC[C@H]1C(=O)N[C@H](C=O)CCCNC(=N)N)c1ccc(O)cc1 [N-Boc-D-(4-hydroxy)phenylglycyl, N-Boc-D-(4-hydroxyphenylglycyl)-Pro-Arg-H diacetate] (Boc-[dHpg]-Pro-Arg-aldehyde) |  | 1091 | 0.182 | 1636 |  |
| CC(C)(C)OC(=O)N[C@@H](C(=O)N1CCC[C@H]1C(=O)N[C@H](C=O)CCCNC(=N)N)C1CCCCC1 [N-Boc-D-cyclohexylglycyl] (Boc-[dChg]-Pro-Arg-aldehyde) |  | 748 | 0.079 | 522 | EC (2-fold clotting time) (bovine thrombin [4]; [8]): 0.06 µg/mL; ED50 (infusion dose required to maintain blood flow for 50 min) [5]: 11.3 mg/kg/h |
| CO[C@@H](C(=O)N1CCC[C@H]1C(=O)N[C@H](C=O)CCCNC(=N)N)c1ccccc1 [(R)-α-Methoxyphenylacetyl] |  | >909 |  | >909 | Kd (thrombin; [9]): 238 nM |
| CN(C(=O)OC(C)(C)C)[C@@H](C(=O)N1CCC[C@H]1C(=O)N[C@H](C=O)CCCNC(=N)N)c1ccccc1 [N-Boc-N-methyl-D-phenylglcyl] (Boc-[dNMePhg]-Pro-Arg-aldehyde) | 192 nM | 4545 | 0.3 | 300 |  |
| CC(C)(C)OC(=O)N1CCc2ccccc2C1C(=O)N1CCC[C@H]1C(=O)N[C@H](C=O)CCCNC(=N)N (mixture of isomers) [Boc-1,2,3,4-tetrahydroisoquinolin-1-ylcarbonyl-Pro-Arg-H] | 263 nM |  |  |  |  |
| C[C@@H](C(=O)N1CCC[C@H]1C(=O)N[C@H](C=O)CCCNC(=N)N)c1ccccc1 [(R)-α-Methylphenylacetyl] |  |  |  |  | Kd (thrombin; [9]): 90.9 nM |
| CC(C)(C)OC(=O)N[C@@H](C(=O)N1CCC[C@H]1C(=O)N[C@H](C=O)CCCN=C(N)N)c1ccccc1 [N-Boc-D-phenylglycyl, N-(t-Butyloxycarbonyl)-D-phenylglycyl-L-Prolyl-L-Arginine aldehyde (Boc-D-Phg-Pro-Arg-H) diacetate salt] (Boc-[dPhg]-Pro-Arg-aldehyde) | 11.4 nM and 13.7 nM |  |  |  |  |
| CC(C)(C)OC(=O)NC(C(=O)N1CCC[C@H]1C(=O)N[C@H](C=O)CCCNC(=N)N)c1ccc(Cl)c(Cl)c1 (mixture of isomers) [N-Boc-DL-(3,4-dichloro)phenylglycyl] | 25 nM |  |  |  |  |
| CC[C@@H](C(=O)N1CCC[C@H]1C(=O)N[C@H](C=O)CCCNC(=N)N)c1ccccc1 [(R)-α-Ethylphenylacetyl] |  | 2275 |  | 700 | Kd (thrombin; [9]): 133 nM |
| CC(C)(C)OC(=O)N[C@@H](C(=O)N1CCC[C@H]1C(=O)N[C@H](C=O)CCCNC(=N)N)c1ccccc1 [N-Boc-D-phenylglycyl, N-(t-Butyloxycarbonyl)-D-phenylglycyl-L-Prolyl-L-Arginine aldehyde (Boc-D-Phg-Pro-Arg-H) diacetate salt] (Boc-[dPhg]-Pro-Arg-aldehyde) |  | 1169 |  | 667 | EC (2-fold clotting time) (bovine thrombin [2]): 0.11 µg/mL; EC (2-fold clotting time) (bovine thrombin [4]; pH 7.5, read-out: Buffer (pH 7.5) Thrombin Time: concentration of test compounds required to prolong coagulation by 2-fold): 0.118 µg/mL; ED50 (infusion dose required to maintain blood flow for 50 min) [5]: 2.9 mg/kg/h |
| COc1ccc2cc([C@@H](NC(=O)OC(C)(C)C)C(=O)N3CCC[C@H]3C(=O)N[C@H](C=O)CCCNC(=N)N)ccc2c1 [N-Boc-D-(6-methoxy)-2-naphthylglycyl] | 164 nM | 2239 | 0.46 | 35489 | EC (2-fold clotting time) (bovine thrombin [4]; [8]): 0.466 µg/mL |
| CC(C)(C)OC(=O)N[C@@H](C(=O)N1CCC[C@H]1C(=O)N[C@H](C=O)CCCN=C(N)N)C1CCCCC1 [N-Boc-D-cyclohexylglycyl] (Boc-[dChg]-Pro-Arg-aldehyde) | 8.33 nM |  |  |  |  |
| CN[C@@H](C(=O)N1CCC[C@H]1C(=O)N[C@H](C=O)CCCNC(=N)N)c1ccccc1 [N-Methyl-D-phenylglycyl, N-methyl-D-phenylglycyl-L-prolyl-L-arginine aldehyde] (H-[dNMePhg]-Pro-Arg-aldehyde) | 10.9 nM | >909 | 0.092 | 899 | EC (2-fold clotting time) (bovine thrombin [4]; [8]): 0.067 µg/mL |
| CC(C)(C)OC(=O)N[C@@H](C(=O)N1CCC[C@H]1C(=O)N[C@H](C=O)CCCNC(=N)N)c1ccc2ccccc2c1 [N-Boc-D-2-naphthylglycyl, N-Boc-D-2-naphthylglycyl-Pro-Arg-H diacetate] |  | 1200 |  | 1200 | Kd (thrombin): 45 nM; Thrombin Time: concentration of test compounds required to prolong coagulation by 2-fold (bovine thrombin [2]; [7]): 230 ng/mL; Buffer (pH 7.5) Thrombin Time: concentration of test compounds required to prolong coagulation by 2-fold (bovine thrombin [4]; buffer pH 7.5, fibrinogen instead of plasma): 142 ng/ml |
| NC(N)=NCCC[C@@H](C=O)NC(=O)[C@@H]1CCCN1C(=O)[C@H](N)c1ccccc1 [D-Phenylglycyl, D-Phg-L-Pro-L-Arg-H] (H-[dPhg]-Pro-Arg-aldehyde) | 13.3 nM |  |  |  |  |
| CC(C)(C)OC(=O)N[C@@H](C(=O)N1CCC[C@H]1C(=O)N[C@H](C=O)CCCN=C(N)N)c1ccccc1 [N-Boc-D-phenylglycyl (sulfate salt), N-Boc-D-Phenylglycyl-L-Prolyl-L-Arginine aldehyde (Boc-D-Phg-Pro-Arg-H) hemisulfate] (Boc-[dPhg]-Pro-Arg-aldehyde) | 9.35 nM |  |  |  |  |
| C[C@H](C(=O)N1CCC[C@H]1C(=O)N[C@H](C=O)CCCNC(=N)N)c1ccccc1 [(S)-α-Methylphenylacetyl] |  |  |  |  | Kd (thrombin; [9]): 5000 nM |
| COc1ccc([C@@H](NC(C)=O)C(=O)N2CCC[C@H]2C(=O)N[C@H](C=O)CCCNC(=N)N)cc1 [N-Acetyl-D-(4-methoxy)phenylglycyl] | 64.5 nM | 2600 | 0.16 | 900 |  |
| N=C(N)NCCC[C@@H](C=O)NC(=O)[C@@H]1CCCN1C(=O)[C@H](N)c1ccccc1 [D-Phenylglycyl, D-Phg-L-Pro-L-Arg-H] (H-[dPhg]-Pro-Arg-aldehyde) |  | 1139 | 0.091 | 91 |  |
